The source of these data is ChEMBL document CHEMBL1201862, “PubChem BioAssay data set” (2004).

Among the test systems are A498; ACHN; CAKI-1; COLO 205; HCC 2998; HCT-116; Hs-578T; K562; MDA-MB-231; NCI-H226; NCI-H23; NCI-H522; NCI/ADR-RES; RPMI-8226; SF-539; SK-MEL-5; SN12C; SW-620; TK-10; UO-31.
What all share (assay): NCI-60 cell line screen, 48 h

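Interpolation was linear, between the two tested concentrations surrounding the appropriate level; five concentrations were tested over 48 hours in 96-well plates. GI50 is the concentration that inhibits growth by half.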 Active and inactive are the calls of the source. Cut-off read from the data, not from the text of the source: active = GI50 up to about 1.1 µM and inactive = higher. *1 amine or outer side, *2 acyl side, *3 side chain or, on linkers, in order; H or OH if unused. Where a SMILES comes first, the peptide text is derived from it. [ ]: non-standard residue; d: D form. The star is where a group is joined. ξ: configuration not given here. X43 = CCC(=O)CC(O)CC(C)CC(N[*:1])C(=O)[*:2]; ξLeu(3ξ-OH) = CC(C)C(O)C(N)C(=O)O; ξPro(4ξ-Me) = CC1CNC(C(=O)O)C1; X42 = CCC(C)/C=C/C(=O)*; Aib = CC(C)(N)C(=O)O; X44 = CC(CN(C)C)N*; βAla = NCCC(=O)O

As to `CC(C)Cc1c(C#N)c(C#N)c(N)n1Cc1ccccc1`, the GI50 with A498 was > 100 µM (inactive); in the test on ACHN it was 82.4 µM (inactive); in the test on CAKI-1, > 100 µM (inactive); in the test on COLO 205 it was > 100 µM (inactive); in the test with HCC 2998 it was > 100 µM (inactive); with HCT-116, > 100 µM (inactive). Moreover, the GI50 in the test on Hs-578T, in the test with K562, in the test on MDA-MB-231, in the test on NCI-H226, in the test on NCI-H23 and in the test with NCI-H522 was > 100 µM (inactive) each time. The GI50 in the test with NCI/ADR-RES, with RPMI-8226, with SF-539, with SK-MEL-5, in the test on SN12C and in the test on SW-620 was > 100 µM (inactive) each time. Further, the GI50 in the test on TK-10 and with UO-31 was > 100 µM (inactive) throughout.

Regarding `CC1=CC(=O)c2cccc(NC3=NCCO3)c21`, the GI50 is 38 µM (inactive) in the test on A498; 86.7 µM (inactive) in the test with ACHN; > 100 µM (inactive) in the test with CAKI-1; 41.1 µM (inactive) in the test with COLO 205; 33.4 µM (inactive) in the test on HCC 2998; 33.6 µM (inactive) in the test with HCT-116. The GI50 in the test with Hs-578T is 76.9 µM (inactive); in the test with K562 it was 34.5 µM (inactive); in the test on MDA-MB-231, 32.4 µM (inactive); with NCI-H226 it was 29 µM (inactive); in the test with NCI-H23, 43.5 µM (inactive); with NCI-H522, 69.8 µM (inactive). Besides, the GI50 was 29.5 µM (inactive) in the test with NCI/ADR-RES; 45.1 µM (inactive) with RPMI-8226; 46.8 µM (inactive) with SF-539; 23.2 µM (inactive) with SK-MEL-5; 52.7 µM (inactive) with SN12C; > 100 µM (inactive) in the test with SW-620. Also, the figures for the GI50 with TK-10 and in the test on UO-31 were > 100 µM (inactive) and 76.6 µM (inactive), respectively.

As for `C[C@H](NC(=O)C(Cc1ccccc1)(Cc1ccc(O)cn1)NC(=O)c1ccccc1)c1ccccc1` (some centres undefined), the GI50 in the test on A498 is 18.1 µM (inactive); in the test with ACHN it was 18.9 µM (inactive); with CAKI-1, 26.9 µM (inactive); with COLO 205 it was 19.1 µM (inactive); in the test with HCC 2998, 16.5 µM (inactive); in the test with HCT-116, 15.3 µM (inactive). In addition, the GI50 in the test on Hs-578T is 16.7 µM (inactive); with K562 it was 34 µM (inactive); with MDA-MB-231, 15.6 µM (inactive); with NCI-H226, 19.7 µM (inactive); in the test on NCI-H23, 22 µM (inactive); in the test on NCI-H522, 15.5 µM (inactive). Further, the GI50 with NCI/ADR-RES was 17.4 µM (inactive); with RPMI-8226, 21.1 µM (inactive); in the test on SF-539 it was 19.2 µM (inactive); in the test on SK-MEL-5 it was 19.4 µM (inactive); in the test with SN12C it was 16.9 µM (inactive); in the test with SW-620 it was 22.5 µM (inactive). The results for the GI50 in the test with TK-10 and in the test on UO-31 were 29.9 µM (inactive) and 14.8 µM (inactive), respectively.

Regarding `CC(C)(CO[C@H]1C[C@H]2CC[C@@]1(C)C2(C)C)[N+](=O)[O-]`, the GI50 was 22.7 µM (inactive) in the test with A498; 33.6 µM (inactive) with ACHN; 20 µM (inactive) in the test on CAKI-1; 15.6 µM (inactive) with COLO 205; 2.07 µM (inactive) with HCC 2998; 15.3 µM (inactive) with HCT-116. Also, the GI50 in the test with Hs-578T was 27.4 µM (inactive); with K562 it was 13.9 µM (inactive); with MDA-MB-231, 18.1 µM (inactive); with NCI-H226, 16.1 µM (inactive); with NCI-H23 it was 25.9 µM (inactive); with NCI-H522, 20.4 µM (inactive). Moreover, the GI50 was 27.9 µM (inactive) with NCI/ADR-RES; 17.7 µM (inactive) with RPMI-8226; 16.4 µM (inactive) with SF-539; 17.3 µM (inactive) with SK-MEL-5; 27.4 µM (inactive) with SN12C; 22.2 µM (inactive) in the test on SW-620. Besides, the GI50 with TK-10 was 17.1 µM (inactive); in the test on UO-31, 12.5 µM (inactive).

Take `CCC(=O)CC(O)CC(C)CC(NC(=O)C1CC(C)CN1C(=O)/C=C/C(C)CC)C(=O)NC(C(=O)NC(C)(C)C(=O)NC(CC(C)C)C(=O)NC(CC(C)C)C(=O)NC(C)(C)C(=O)NC(C)(C)C(=O)NCCC(=O)NC(C)CN(C)C)C(O)C(C)C` (centres undefined) (X42-[ξPro(4ξ-Me)][X43][ξLeu(3ξ-OH)][Aib]LL[Aib][Aib][βAla]-X44; configuration not given here): the GI50 is 0.495 µM (active) in the test on A498; 0.611 µM (active) in the test with ACHN; 1.19 µM (inactive) in the test with CAKI-1; 0.0131 µM (active) with COLO 205; 0.153 µM (active) with HCC 2998; 0.0235 µM (active) with HCT-116. Further, the GI50 was 0.0132 µM (active) in the test on Hs-578T; 0.0469 µM (active) in the test with K562; 0.133 µM (active) with MDA-MB-231; < 0.005 µM (active) with NCI-H226; < 0.005 µM (active) in the test on NCI-H23; < 0.005 µM (active) in the test on NCI-H522. In addition, the GI50 in the test on NCI/ADR-RES was 7.08 µM (inactive); with RPMI-8226 it was 0.0218 µM (active); in the test on SF-539 it was 0.292 µM (active); with SK-MEL-5, < 0.005 µM (active); in the test with SN12C, 0.261 µM (active); in the test on SW-620 it was 0.143 µM (active). The GI50 is 0.345 µM (active) with TK-10 and 5.87 µM (inactive) with UO-31.

Take `CCOC(=O)NNC(=O)NCCNC(=O)NNC(=O)OCC`: the GI50 in the test on A498, with CAKI-1, in the test with COLO 205, in the test on HCC 2998, in the test on HCT-116 and with Hs-578T was > 100 µM (inactive) in each case. The GI50 with K562 is > 100 µM (inactive); in the test on MDA-MB-231 it was > 100 µM (inactive); with NCI-H226, 98.6 µM (inactive); in the test with NCI-H23, > 100 µM (inactive); with NCI-H522, > 100 µM (inactive); in the test on NCI/ADR-RES it was > 100 µM (inactive). Also, the GI50 in the test with RPMI-8226, in the test with SF-539, with SK-MEL-5, with SN12C, with SW-620 and in the test with TK-10 was > 100 µM (inactive) in each case. In addition, the GI50 in the test with UO-31 is > 100 µM (inactive).

Regarding `Cc1nc(Nc2ccc(Cl)cc2Cl)sc1C(=O)Nc1ccccc1`, the GI50 with A498 is > 100 µM (inactive); with ACHN, 36.1 µM (inactive); in the test with CAKI-1, 49.8 µM (inactive); in the test with COLO 205, 26.2 µM (inactive); with HCC 2998, 72.1 µM (inactive); with HCT-116, 35.1 µM (inactive). Further, the GI50 with Hs-578T is 47 µM (inactive); in the test with K562, 24 µM (inactive); with MDA-MB-231, 56.5 µM (inactive); in the test with NCI-H226, < 0.01 µM (active); in the test with NCI-H23 it was 46 µM (inactive); with NCI-H522, 38.5 µM (inactive). In addition, the GI50 in the test with NCI/ADR-RES was 96.6 µM (inactive); in the test with RPMI-8226, 29.2 µM (inactive); in the test on SF-539 it was > 100 µM (inactive); in the test with SK-MEL-5, 37.9 µM (inactive); in the test with SN12C it was > 100 µM (inactive); with SW-620, > 100 µM (inactive). Besides, the GI50 in the test on TK-10 is 57.4 µM (inactive); in the test with UO-31 it was 29.6 µM (inactive).

Turning to `O=c1cnn(C2OC(CO)C(O)C(F)C2O)c(=O)[nH]1` (centres undefined), the GI50 in the test on A498 was 40.8 µM (inactive); with ACHN, > 100 µM (inactive); in the test on CAKI-1, > 100 µM (inactive); in the test on COLO 205, > 100 µM (inactive); in the test on HCC 2998 it was > 100 µM (inactive); with HCT-116, > 100 µM (inactive). Moreover, the GI50 in the test with Hs-578T, with K562, in the test on MDA-MB-231, with NCI-H226, in the test with NCI-H23 and in the test with NCI-H522 was > 100 µM (inactive) throughout. The GI50 in the test on NCI/ADR-RES, in the test with RPMI-8226, in the test on SF-539, with SK-MEL-5, with SN12C and in the test on SW-620 was > 100 µM (inactive) throughout. Moreover, the GI50 in the test on TK-10 and in the test with UO-31 was > 100 µM (inactive) throughout.

For `CCOP(=O)(OCC)C(Cc1cn(S(=O)(=O)c2ccc(C)cc2)cn1)C(=O)O` (centres undefined), the GI50 with A498, in the test with ACHN, with CAKI-1, in the test on COLO 205, with HCC 2998 and in the test with HCT-116 was > 100 µM (inactive) throughout. For the same compound, the GI50 in the test with Hs-578T, in the test on K562, with MDA-MB-231, in the test with NCI-H226, in the test with NCI-H23 and in the test on NCI-H522 was > 100 µM (inactive) in each case. Besides, the GI50 in the test on NCI/ADR-RES, with RPMI-8226, with SF-539, with SK-MEL-5, in the test on SN12C and in the test with SW-620 was > 100 µM (inactive) each time. The GI50 in the test on TK-10 and in the test with UO-31 was > 100 µM (inactive) in each case.

Take `CC(=O)OCC12C(=O)C[C@@H](C)C3(CC(c4ccoc4)OC3=O)C1CCC(OC(C)=O)C21CO1` (some centres undefined): the GI50 in the test with A498, in the test on ACHN, with CAKI-1, in the test with COLO 205, with HCC 2998 and in the test with HCT-116 was > 100 µM (inactive) in each case. Further, the GI50 in the test with Hs-578T, with K562, in the test with MDA-MB-231, with NCI-H226, in the test on NCI-H23 and in the test on NCI-H522 was > 100 µM (inactive) in each case. Moreover, the GI50 in the test with NCI/ADR-RES, in the test on RPMI-8226, in the test with SF-539, in the test on SK-MEL-5, in the test on SN12C and in the test with SW-620 was > 100 µM (inactive) throughout. The GI50 in the test with TK-10 and in the test on UO-31 was > 100 µM (inactive) throughout.
